Assays:
[1] = tested on: corn; assay: Test A pre-/postemergence herbicide test; type: in vivo, Zea mays; conditions: Postemergence
In short: (§1)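 Planted in loam–sand blend; treated the same day preemergence by directed soil spray, while separately grown plants at one- to two-leaf stage got postemergence spray. Compared visually with untreated controls after approximately 10 days; 100 means complete control.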

[2] = tested on: ducksalad; assay: Test B flooded paddy test; type: in vivo, Heteranthera limosa; conditions: 500 g ai/ha, Flood; scale of 0 to 100 where 0 is no effect and 100 is complete control
In short: (§2)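 Plants grown to 2-leaf stage; pots flooded 3 cm above soil and compound applied directly into paddy water, depth held throughout. Visual rating against untreated controls after 13 to 15 days in greenhouse, 0 (no effect) to 100 (complete control).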

[3] = tested on: barnyardgrass; assay: Test A pre-/postemergence herbicide test; type: in vivo, Echinochloa crus-galli
In short: as §1

[4] = tested on: morningglory; assay: Test C pre-/postemergence herbicide test; type: in vivo, Ipomoea coccinea
In short: (§3)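 Test compounds, formulated in a surfactant-containing non-phytotoxic solvent blend, are applied to seeded loam/sand soil (preemergence) and to young plants at the 1- to 4-leaf stage in peat-based medium (postemergence). Plants stay 13 to 15 days under greenhouse conditions, then are scored visually relative to controls, 0 = no effect, 100 = complete control.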

[5] = tested on: crabgrass, large; assay: Test C pre-/postemergence herbicide test; type: in vivo, Digitaria sanguinalis
In short: as §3

[6] = tested on: soybean; assay: Test C pre-/postemergence herbicide test; type: in vivo, Glycine max
In short: as §3

[7] = tested on: barnyardgrass; assay: Test C pre-/postemergence herbicide test; type: in vivo, Echinochloa crus-galli
In short: as §3

[8] = tested on: giant foxtail; assay: Test A pre-/postemergence herbicide test; type: in vivo, Setaria faberii
In short: as §1

[9] = tested on: blackgrass; assay: Test C pre-/postemergence herbicide test; type: in vivo, Alopecurus myosuroides
In short: as §3

[10] = tested on: barnyardgrass; assay: Test B flooded paddy test; type: in vivo, Echinochloa crus-galli; conditions: 500 g ai/ha, Flood; scale of 0 to 100 where 0 is no effect and 100 is complete control
In short: as §2

[11] = tested on: ragweed; assay: Test C pre-/postemergence herbicide test; type: in vivo, Ambrosia elatior
In short: as §3

[12] = tested on: rice; assay: Test B flooded paddy test; type: in vivo, Oryza sativa; conditions: 500 g ai/ha, Flood; scale of 0 to 100 where 0 is no effect and 100 is complete control
In short: as §2

[13] = tested on: sedge, umbrella; assay: Test B flooded paddy test; type: in vivo, Cyperus difformis; conditions: 500 g ai/ha, Flood; scale of 0 to 100 where 0 is no effect and 100 is complete control
In short: as §2

[14] = 125 g ai/ha, visual rating on 0 to 100 scale (0 no effect, 100 complete control), approx. 10 days
[15] = 500 g ai/ha, 0 to 100 scale (0 no effect, 100 complete control)
[16] = Postemergence, 125 g ai/ha, visual rating on 0 to 100 scale (0 no effect, 100 complete control), approx. 10 days
[17] = Postemergence, 500 g ai/ha, 0 to 100 scale (0 no effect, 100 complete control)
[18] = Preemergence, 125 g ai/ha, 0 to 100 scale where 0 is no effect and 100 is complete control
[19] = Preemergence, 500 g ai/ha, visual rating on 0 to 100 scale (0 no effect, 100 complete control)
[20] = Postemergence, 31 g ai/ha, scale 0 to 100 (0 no effect, 100 complete control)
[21] = Postemergence, 62 g ai/ha, scale 0 (no effect) to 100 (complete control)
[22] = Postemergence, 125 g ai/ha, scale 0 to 100 (0 no effect, 100 complete control)
[23] = Postemergence, 250 g ai/ha, scale 0 to 100 (0 no effect, 100 complete control)
[24] = Preemergence, 31 g ai/ha, scale 0 to 100, 0 is no effect and 100 is complete control
[25] = Preemergence, 62 g ai/ha, scale 0 to 100 (0 no effect, 100 complete control)
[26] = Preemergence, 125 g ai/ha, scale 0 to 100
[27] = Preemergence, 125 g ai/ha, scale 0 to 100 (0 no effect, 100 complete control)

O=C1NCC(c2cccc(C(F)(F)F)c2)C1C(=O)Nc1ccccc1Cl (stereo not shown) [Compound 312]
80: Plant response rating, Corn [1, 15] | Plant response rating, Barnyardgrass [3, 16] | Plant response rating, Barnyardgrass [3, 18] | Plant response rating, Crabgrass, Large [5, 22] | Plant response rating, Foxtail, Giant [8, 16]
95: Crabgrass, Large plant response rating [5, 25] | Plant response rating, Crabgrass, Large [5, 26] | Plant response rating (scale of 0 to 100), Crabgrass, Large ([5]; Preemergence, 250 g ai/ha) | Plant response rating (scale of 0 to 100; 0 is no effect, 100 is complete control), Barnyardgrass ([7]; Preemergence, 250 g ai/ha)
85: Barnyardgrass plant response rating [7, 24]
75: Plant response rating, Barnyardgrass [7, 23] | Plant response rating (scale of 0 to 100), Blackgrass ([9]; Preemergence, 250 g ai/ha) | Plant response rating, Barnyardgrass [10]
70: Plant response rating, Barnyardgrass [7, 21] | Plant response rating, Barnyardgrass [7, 22] | Plant response rating, Blackgrass [9, 26]
20: Plant response rating, Morningglory [4, 23] | Plant response rating, Rice [12]
10: Plant response rating, Morningglory [4, 22] | Plant response rating (scale of 0 to 100), Ragweed ([11]; Preemergence, 250 g ai/ha)
0: Plant response rating, Morningglory [4, 20] | Plant response rating, Morningglory [4, 21] | Morningglory plant response rating [4, 24] | Plant response rating, Soybean [6, 20] | Plant response rating, Soybean [6, 21] | Plant response rating, Soybean [6, 22] | Plant response rating, Soybean [6, 23] | Soybean plant response rating [6, 25] | Plant response rating, Soybean [6, 26] | Plant response rating (scale of 0 to 100), Soybean ([6]; Preemergence, 250 g ai/ha) | Plant response rating, Blackgrass [9, 20] | Plant response rating, Blackgrass [9, 21] | Plant response rating, Blackgrass [9, 22] | Plant response rating, Blackgrass [9, 23] | Ragweed plant response rating [11, 25] | Plant response rating, Sedge, Umbrella [13]
55: Plant response rating (scale of 0 to 100), Morningglory ([4]; Preemergence, 250 g ai/ha) | Plant response rating, Ragweed [11, 23]
40: Plant response rating, Morningglory [4, 26] | Plant response rating, Barnyardgrass [7, 20] | Blackgrass plant response rating [9, 24] | Plant response rating, Ragweed [11, 20]
90: Plant response rating, Barnyardgrass [3, 17] | Barnyardgrass plant response rating [3, 19] | Plant response rating, Crabgrass, Large [5, 23] | Crabgrass, Large plant response rating [5, 24] | Barnyardgrass plant response rating [7, 25] | Plant response rating, Barnyardgrass [7, 27] | Plant response rating, Foxtail, Giant [8, 17] | Plant response rating, Foxtail, Giant [8, 18] | Foxtail, Giant plant response rating [8, 19]
45: Blackgrass plant response rating [9, 25] | Plant response rating, Ragweed [11, 22]
35: Morningglory plant response rating [4, 25] | Plant response rating, Ragweed [11, 21]
60: Plant response rating, Corn [1, 14]
25: Plant response rating, Crabgrass, Large [5, 20]
50: Plant response rating, Crabgrass, Large [5, 21] | Plant response rating, Ragweed [11, 26]
100: Plant response rating, Ducksalad [2]

O=C1NCC(c2cccc(OC(F)F)c2)C1C(=O)Nc1cccc(F)c1F (stereo not shown) [Compound 324]
95: Crabgrass, Large plant response rating [5, 24] | Crabgrass, Large plant response rating [5, 25] | Barnyardgrass plant response rating [7, 25] | Plant response rating, Barnyardgrass [7, 27] | Plant response rating (scale of 0 to 100), Blackgrass ([9]; Preemergence, 250 g ai/ha)
25: Plant response rating, Crabgrass, Large [5, 20] | Plant response rating, Ragweed [11, 22]
90: Plant response rating, Corn [1, 15] | Plant response rating, Barnyardgrass [3, 16] | Plant response rating, Barnyardgrass [3, 17] | Plant response rating, Barnyardgrass [3, 18] | Barnyardgrass plant response rating [3, 19] | Barnyardgrass plant response rating [7, 24] | Plant response rating, Foxtail, Giant [8, 16] | Plant response rating, Foxtail, Giant [8, 17] | Plant response rating, Foxtail, Giant [8, 18] | Foxtail, Giant plant response rating [8, 19]
0: Morningglory plant response rating [4, 24] | Morningglory plant response rating [4, 25] | Plant response rating, Soybean [6, 20] | Plant response rating, Soybean [6, 22] | Plant response rating, Soybean [6, 23] | Soybean plant response rating [6, 25] | Plant response rating, Soybean [6, 26] | Plant response rating, Barnyardgrass [7, 20] | Plant response rating, Blackgrass [9, 20] | Plant response rating, Blackgrass [9, 21] | Plant response rating, Blackgrass [9, 22] | Plant response rating, Blackgrass [9, 23] | Plant response rating, Sedge, Umbrella [13]
30: Blackgrass plant response rating [9, 25] | Plant response rating, Rice [12]
20: Plant response rating, Ragweed [11, 21]
10: Plant response rating, Morningglory [4, 20] | Plant response rating, Morningglory [4, 22]
75: Plant response rating, Crabgrass, Large [5, 23] | Plant response rating, Ragweed [11, 26]
98: Plant response rating, Crabgrass, Large [5, 26] | Plant response rating (scale of 0 to 100), Crabgrass, Large ([5]; Preemergence, 250 g ai/ha) | Plant response rating (scale of 0 to 100; 0 is no effect, 100 is complete control), Barnyardgrass ([7]; Preemergence, 250 g ai/ha)
100: Plant response rating, Ducksalad [2] | Blackgrass plant response rating [9, 24]
35: Plant response rating, Morningglory [4, 26] | Plant response rating, Barnyardgrass [7, 21]
5: Plant response rating, Morningglory [4, 21] | Plant response rating, Soybean [6, 21] | Plant response rating, Ragweed [11, 20]
55: Plant response rating (scale of 0 to 100), Morningglory ([4]; Preemergence, 250 g ai/ha) | Plant response rating, Barnyardgrass [7, 22]
70: Plant response rating, Crabgrass, Large [5, 22] | Plant response rating, Blackgrass [9, 26]
15: Plant response rating, Morningglory [4, 23]
40: Plant response rating, Ragweed [11, 23]
80: Plant response rating, Barnyardgrass [10]
60: Plant response rating, Crabgrass, Large [5, 21] | Ragweed plant response rating [11, 25]
50: Plant response rating, Corn [1, 14]
65: Plant response rating, Barnyardgrass [7, 23]
